Assay: mn = molality of the nth substance listed, in mol/kg
Conditions: 101.3 kPa, Liquid, Vibrating tube method

Cc1c[nH]c(=O)[nH]c1=O [thymine] + O
mass density [kg/m3]
Conditions | m1 = 0.00771 | m1 = 0.01299 | m1 = 0.01771 | m1 = 0.02319 | m1 = 0.02665 | m1 = 0.03315
288.15 K | 999.423 | 999.622 | 999.797 | 1000 | 1000.13 | 1000.37
298.15 K | 997.334 | 997.53 | 997.704 | 997.906 | 998.033 | 998.27
308.15 K | 994.344 | 994.535 | 994.705 | 994.901 | 995.023 | 995.252
318.15 K | 990.518 | 990.703 | 990.867 | 991.055 | 991.172 | 991.393

Nc1cc[nH]c(=O)n1 [4-amino-2-hydroxypyrimidine] + O
mass density [kg/m3]
Conditions | 288.15 K | 298.15 K | 308.15 K | 318.15 K
m1 = 0.00616 | 999.374 | 997.282 | 994.295 | 990.472
m1 = 0.01095 | 999.56 | 997.461 | 994.473 | 990.648
m1 = 0.01278 | – | 997.529 | – | –
m1 = 0.01633 | 999.767 | 997.66 | 994.67 | 990.845
m1 = 0.01855 | – | 997.743 | – | –
m1 = 0.01892 | – | 997.756 | – | –
m1 = 0.01961 | 999.894 | 997.779 | 994.791 | 990.964
m1 = 0.02682 | 1000.17 | 998.042 | 995.052 | 991.228
m1 = 0.02766 | – | 998.073 | – | –
m1 = 0.02813 | – | 998.09 | – | –
m1 = 0.03302 | 1000.4 | 998.264 | 995.271 | 991.452
m1 = 0.0353 | – | 998.345 | – | –

O=c1cc[nH]c(=O)[nH]1 [2,4(1H,3H)-pyrimidinedione] + O
mass density [kg/m3]
Conditions | 288.15 K | 298.15 K | 308.15 K | 318.15 K
m1 = 0.00553 | 999.354 | 997.267 | 994.275 | 990.452
m1 = 0.00878 | – | 997.396 | – | –
m1 = 0.01162 | 999.599 | 997.507 | 994.508 | 990.68
m1 = 0.01202 | – | 997.522 | – | –
m1 = 0.01509 | 999.736 | 997.643 | 994.639 | 990.808
m1 = 0.01724 | – | 997.727 | – | –
m1 = 0.01985 | 999.924 | 997.828 | 994.818 | 990.984
m1 = 0.02348 | – | 997.97 | – | –
m1 = 0.02387 | – | 997.985 | – | –
m1 = 0.02487 | – | 998.023 | – | –
m1 = 0.02578 | 1000.15 | 998.059 | 995.038 | 991.203
m1 = 0.03026 | 1000.33 | 998.232 | 995.205 | 991.367

Cc1cn([C@H]2CC(O)[C@@H](CO)O2)c(=O)[nH]c1=O (stereo partly drawn) [thymidine] + O
mass density [kg/m3]
Conditions | m1 = 0.00963 | m1 = 0.01114 | m1 = 0.01478 | m1 = 0.02291 | m1 = 0.02594 | m1 = 0.0288
288.15 K | 999.851 | 999.964 | 1000.24 | 1000.84 | 1001.06 | 1001.27
298.15 K | 997.759 | 997.871 | 998.139 | 998.733 | 998.954 | 999.162
308.15 K | 994.768 | 994.878 | 995.142 | 995.73 | 995.947 | 996.152
318.15 K | 990.937 | 991.046 | 991.306 | 991.881 | 992.094 | 992.294

Cl.N=C(N)N [guanidine hydrochloride] + O
mass density [kg/m3]
Conditions | m1 = 0.1 | m1 = 0.25 | m1 = 0.5 | m1 = 0.75 | m1 = 1
288.15 K | 1001.93 | 1006.02 | 1012.56 | 1018.77 | 1024.63
298.15 K | 999.788 | 1003.75 | 1010.1 | 1016.1 | 1021.79
308.15 K | 996.735 | 1000.63 | 1006.86 | 1012.74 | 1018.36
318.15 K | 992.885 | 996.736 | 1002.87 | 1008.68 | 1014.2
